# Data reported in paper PMC3265452 (PLoS Neglected Tropical Diseases, 2012).
# Structures can show the parent of a compound that is named as a salt.
# Target: AaDOP2 (Aedes aegypti, UniProt H6D5H2)
# Assay: AaDOP2 antagonist screen of the LOPAC1280 library (HEK-CRELuc-Aadop2 cells, luminescence)
# Format: cell-based
# Details: not given
# AaDOP2, sequence (H6D5H2 1-476): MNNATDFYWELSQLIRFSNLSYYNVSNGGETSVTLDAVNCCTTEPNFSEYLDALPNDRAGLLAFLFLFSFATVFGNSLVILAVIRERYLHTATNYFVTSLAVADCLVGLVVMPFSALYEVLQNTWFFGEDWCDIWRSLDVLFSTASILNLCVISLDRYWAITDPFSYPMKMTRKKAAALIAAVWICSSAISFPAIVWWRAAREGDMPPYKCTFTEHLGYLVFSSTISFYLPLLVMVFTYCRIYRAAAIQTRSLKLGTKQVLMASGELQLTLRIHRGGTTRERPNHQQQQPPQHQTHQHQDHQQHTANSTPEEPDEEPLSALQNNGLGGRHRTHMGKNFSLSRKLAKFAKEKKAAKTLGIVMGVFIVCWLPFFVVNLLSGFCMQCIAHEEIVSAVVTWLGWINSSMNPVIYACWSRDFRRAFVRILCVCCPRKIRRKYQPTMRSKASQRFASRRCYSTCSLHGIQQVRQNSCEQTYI
row,Structure (SMILES),"Compound effect (percent receptor signaling in presence of test compound, relative lux units relative to the SCH23390 control)"
1,"Cl.NC1C=CC=C(C(=O)O)C1 (stereo not shown) [Compound 41, Gabaculine hydrochloride]",106
2,"CC1=C(C)C(=O)C(CCCCC#CCCCC#CCO)=C(C)C1=O [Compound 43, AA-861]",69
3,"Cl.Nc1c2c(nc3ccccc13)CCCC2 [Compound 44, 9-Amino-1,2,3,4-tetrahydroacridine hydrochloride]",206
4,"O=C(O)CCC/C=C\C[C@@H]1[C@@H](/C=C/[C@H](O)C2Cc3ccccc3C2)[C@@H](F)C[C@@H]1O [Compound 45, AL-8810]",102
5,"Nn1nnc2ccccc21 [Compound 46, 1-Aminobenzotriazole]",141
6,"CN1CCc2cccc3c2[C@H]1Cc1ccc(O)c(O)c1-3 [Compound 48, Apomorphine hydrochloride hemihydrate]",54
7,"CN(C)c1nc(N)c(C(=O)NC(=N)N)nc1Cl [Compound 50, 5-(N,N-Dimethyl)amiloride hydrochloride]",108
8,"Cn1cnc([N+](=O)[O-])c1Sc1ncnc2nc[nH]c12 [Compound 51, Azathioprine]",103
9,"Nc1nc2c(ncn2COCCO)c(=O)[nH]1 [Compound 52, Acyclovir]",90
10,"CN(C)CCCO[C@@H]1[C@H]2OC(C)(C)O[C@H]2O[C@@H]1[C@H](O)CO [Compound 53, Amiprilose hydrochloride]",99
11,"O=C1Cc2c([nH]c3ccc([N+](=O)[O-])cc23)-c2ccccc2N1 [Compound 54, Alsterpaullone]",92
12,"N=C(N)NCCC[C@H](N)C(=O)O [Compound 56, L-Arginine]",94
13,"CC(=O)N[C@@H](Cc1c[nH]c2ccccc12)C(=O)OCc1cc(C(F)(F)F)cc(C(F)(F)F)c1 [Compound 59, L-732,138]",100
14,"CC(=O)Oc1ccccc1C(=O)O [Compound 60, Acetylsalicylic acid]",87
15,"CC(C)CN(C)c1nc(N)c(C(=O)N=C(N)N)nc1Cl [Compound 61, 5-(N-Methyl-N-isobutyl)amiloride]",72
16,"CC(=O)SCC[N+](C)(C)C.[Cl-] [Compound 62, Acetylthiocholine chloride]",122
17,"C[C@]12CCC(=O)C(O)=C1CC[C@@H]1[C@@H]2CC[C@]2(C)C(=O)CC[C@@H]12 [Compound 63, 4-Androsten-4-ol-3,17-dione]",107
18,"Br.Br.N=C(N)SCCN [Compound 64, 2-(2-Aminoethyl)isothiourea dihydrobromide]",104
19,"C[C@H](CCC(=O)NCCS(=O)(=O)O)[C@H]1CC[C@H]2[C@@H]3[C@H](O)C[C@@H]4C[C@H](O)CC[C@]4(C)[C@H]3C[C@H](O)[C@]12C [Compound 66, Sodium Taurocholate]",115
20,"NCCCNCCSP(=O)(O)O [Compound 67, Amifostine]",111
21,"CC(=O)Nc1nnc(S(N)(=O)=O)s1 [Compound 68, Acetazolamide]",106
22,"COC(=O)C1=CCCN(C)C1 [Compound 69, Arecoline hydrobromide]",104
23,"CCS(=O)(=O)Nc1cccc(C(=C2CCCCC2)c2cnc[nH]2)c1 [Compound 70, A-315456]",111

row,Structure (SMILES),"Compound effect (percent receptor signaling in presence of test compound, relative lux units relative to the SCH23390 control)"
1,"COc1ccc(CNC(=O)/C=C/c2ccc3[nH]cc(CCN(C)C)c3c2)cc1 [Compound 71, GR 4661]",114
2,"CCCCC[C@H](CC(=O)NO)C(=O)N[C@H](C(=O)N1CCC[C@H]1CO)C(C)C [Compound 73, Actinonin]",96
3,"CN(Cc1cnc2nc(N)nc(N)c2n1)c1ccc(C(=O)N[C@@H](CCC(=O)O)C(=O)O)cc1 [Compound 74, Methotrexate]",89
4,"C[N+]1(C)[C@@H]2CC[C@H]1C[C@@H](OC(=O)C(CO)c1ccccc1)C2 (stereo partly shown) [Compound 75, Atropine methyl bromide]",105
5,"CCNC(=O)N1CCN(CCCC(c2ccc(F)cc2)c2ccc(F)cc2)CC1 [Compound 76, Amperozide hydrochloride]",17
6,"NCCCCN=C(N)N [Compound 78, Agmatine sulfate]",113
7,"Cl.Cl.N=C(N)c1ccc(N)cc1 [Compound 79, 4-Aminobenzamidine dihydrochloride]",106
8,"NCCCP(=O)(O)O [Compound 80, 3-Aminopropylphosphonic acid]",101
9,"CC(=O)N[C@@H](CS)C(=O)O [Compound 81, N-Acetyl-L-Cysteine]",101
10,"N[C@@H](CCCC(=O)O)C(=O)O [Compound 82, L-2-aminoadipic acid]",96
11,"CC(=O)NCCc1c[nH]c2ccccc12 [Compound 83, N-Acetyltryptamine]",42
12,"N=C(N)NC(=O)c1nc(Cl)c(N)nc1N [Compound 84, Amiloride hydrochloride]",110
13,"C[C@]12CC[C@@H](O)C[C@@H]1CC[C@@H]1[C@@H]2CC[C@]2(C)[C@@H](O)CC[C@@H]12 [Compound 86, 5alpha-Androstane-3alpha,17beta-diol]",98
14,"C=CC[C@H](N)C(=O)O [Compound 87, L-allylglycine]",107
15,"NCCCCCC(=O)O [Compound 89, 6-Aminohexanoic acid]",120
16,"Oc1ncnc2[nH]ncc12 [Compound 91, Allopurinol]",101
17,"CCCCc1oc2ccccc2c1C(=O)c1cc(I)c(OCCN(CC)CC)c(I)c1 [Compound 93, Amiodarone hydrochloride]",104
18,"Cl.NCCc1ccc(S(=O)(=O)F)cc1 [Compound 94, 4-(2-Aminoethyl)benzenesulfonyl fluoride hydrochloride]",105
19,"N=c1ccn2c(n1)O[C@H]1[C@H](O)[C@@H](CO)O[C@H]12 [Compound 95, Ancitabine hydrochloride]",119
20,"C=CCc1ccccc1OCC(O)CNC(C)C (stereo not shown) [Compound 96, Alprenolol hydrochloride]",104
21,"CN(C)c1nc(N(C)C)nc(N(C)C)n1 [Compound 97, Altretamine]",105
22,"C=CC[N+](C)(C)c1ccc(CCC(=O)CCc2ccc([N+](C)(C)CC=C)cc2)cc1.[Br-].[Br-] [Compound 100, BW 284c51]",93

# Same assay, conditions: 10 µM compound, 300 nM dopamine, 2 hr; hit = compound effect <20
row,Structure (SMILES),"Compound effect (percent receptor signaling in presence of test compound, relative lux units relative to the SCH23390 control) [%]"
1,"Cl.NCCCCCCNS(=O)(=O)c1cccc2c(Cl)cccc12 [Compound 40, W-7 hydrochloride]",87
2,"NCCCS(=O)(=O)O.[Na] [Compound 47, 3-Amino-1-propanesulfonic acid sodium]",94
3,"Cl.NOCC(=O)O.NOCC(=O)O [Compound 49, O-(Carboxymethyl)hydroxylamine hemihydrochloride]",97
4,"CCN(CC)CCNC(=O)c1ccc(NC(C)=O)cc1.Cl [Compound 65, N-Acetylprocainamide hydrochloride]",126
5,"NCC(O)(CS(=O)(=O)O)c1ccc(Cl)cc1 (stereo not shown) [Compound 72, 2-Hydroxysaclofen]",110
6,"NN=C(N)N.NN=C(N)N.O=S(=O)(O)O [Compound 77, Aminoguanidine hemisulfate]",107
7,"Cl.Cl.NCCNS(=O)(=O)c1cccc2cnccc12 [Compound 88, H-9 dihydrochloride]",64
8,"CC(=O)NCCc1ccc(O)c(O)c1.O [Compound 98, N-Acetyldopamine monohydrate]",95
9,"Cl.N=C(N)NN [Compound 99, Aminoguanidine hydrochloride]",107

# Same assay, conditions: read-out: % of the SCH23390 effect (percent inhibition of receptor response relative to the SCH23390 control)
row,Structure (SMILES),inhibition at 10 µM [%]
1,"CCNC(=O)N1CCN(CCCC(c2ccc(F)cc2)c2ccc(F)cc2)CC1 [Compound 76, Amperozide hydrochloride]",83
